Results reported in US6461997B1, “Triazole sulfones having herbicidal activity” (Monsanto Technology LLC, priority 1999, dated 2002).

Experiments:
POLCO (wild buckwheat) = test: Pre-emergence herbicidal activity, cool season; assay type: in vivo, Polygonum convolvulus; conditions: lowest tested rate with 80% or greater inhibition; rates 300, 100, 30, 10 g/ha; about 14 days
Outline: (§1)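 Under 18/13 °C (ALOMY, POLCO) or 30/21 °C (PANMI, DIGSA) day/night, pre-emergence soil-surface treatments at 300, 100, 30 and 10 g/ha were evaluated after roughly 14 days. GR80 reflects percent inhibition relative to untreated plants.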

[1] = system: CHEAL (common lambsquarters); test: Pre-emergence herbicidal activity, warm season; assay type: in vivo, Chenopodium album; conditions: GR80 = lowest tested rate (300, 100, 30, 10 g/ha) with 80% or greater inhibition; approx. 14 days after treating; 30/21° C.
Outline: (§2)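 GR80 values derive from percent inhibition relative to untreated plants, read roughly 14 days after sowing and pre-emergence soil-surface treatment (compound in 50:50 acetone/water; rates typically 10, 30, 100, 300 g/ha). Warm-season weeds grew at 30/21° C day/night, cool-season ones at 18/13° C; an asterisk marks activity without reaching 80% at the highest rate.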

SETVI (green foxtail) = test: Pre-emergence herbicidal activity, cool season; assay type: in vivo, Setaria viridis; conditions: GR80 = lowest tested rate (300, 100, 30, 10 g/ha) with 80% or greater inhibition; approx. 14 days after treating; 18/13° C.
Outline: as §2

POROL (common purslane) = test: Pre-emergence herbicidal activity, warm season; assay type: in vivo, Portulaca oleracea; conditions: GR80 = lowest tested rate (300, 100, 30, 10 g/ha) with 80% or greater inhibition; approx. 14 days after treating; 30/21° C.
Outline: as §2

AVEFA (wild oat) = test: Pre-emergence herbicidal activity, cool season; assay type: in vivo, Avena fatua; conditions: GR80 = lowest tested rate (300, 100, 30, 10 g/ha) with 80% or greater inhibition; approx. 14 days after treating; 18/13° C.
Outline: as §2

DIGSA (large crabgrass) = test: Pre-emergence herbicidal activity, warm season; assay type: in vivo, Digitaria sanguinalis; conditions: GR80 = lowest tested rate (300, 100, 30, 10 g/ha) with 80% or greater inhibition; approx. 14 days after treating; 30/21° C.
Outline: as §1

[2] = system: AGRRE (quackgrass (seedling)); test: Pre-emergence herbicidal activity, cool season; assay type: in vivo, Elymus repens; conditions: GR80 = lowest tested rate (300, 100, 30, 10 g/ha) with 80% or greater inhibition; approx. 14 days after treating; 18/13° C.
Method: (§3) Tables 5 to 8 summarize results of tests conducted as described below to determine the pre-emergence herbicidal activity, in the form of a GR80 value, of illustrative compounds of this invention. […] Compounds of the invention were typically applied at rates of 300, 100, 30, and 10 g/ha. Where herbicidal activity was evident but 80% inhibition was not achieved at the highest rate tested, an asterisk (*) is shown in the following tables.
(§4) The pre-emergence tests were conducted by the following procedure. Topsoil was sieved to pass through a 1.27 cm screen. Fertilizer was added to the topsoil and the mixture was then sterilized by heating. The topsoil mixture was placed in a pot and compacted to a depth of 1.0 to 1.25 cm from the top of the pot. Seeds of each of several monocotyledonous and dicotyledonous annual plant species were placed on top of the soil. Additional soil was subsequently placed over the seeds to level-fill the pot. A known amount of each test compound dissolved or suspended in an appropriate organic solvent was diluted with a 50:50 mix of acetone and water and applied to the surface of the soil. After treatment the plants were placed in a greenhouse where they received 0.64 cm of overhead irrigation. All subsequent watering consisted of a light overhead mist and/or subirrigation as needed for germination and growth. Tables 5 and 6 below relate to warm season plant species which were placed after pre-emergence treatment in a greenhouse with a 30/21° C. day/night temperature regime. Tables 7 and 8 below relates to cool season plant species placed after pre-emergence treatment in a greenhouse or growth chamber with an 18/13° C. day/night temperature regime.
(§5) Approximately 14 days after planting and treating, the plants were observed and herbicidal efficacy recorded as percent inhibition by comparison with untreated plants.
(§6) The plant species usually regarded as weeds which were utilized in the tests are identified in the tables below according to the following legend, in which “d” indicates a dicotyledonous species and “m” a monocotyledonous species. All monocotyledonous species included in the tests herein are grasses.

[3] = system: AEGCY (jointed goatgrass); test: Pre-emergence herbicidal activity, cool season; assay type: in vivo, Aegilops cylindrica; conditions: GR80 = lowest tested rate (300, 100, 30, 10 g/ha) with 80% or greater inhibition; approx. 14 days after treating; 18/13° C.
Method: as §3, §4, §5, §6

SETFA (giant foxtail) = test: Pre-emergence herbicidal activity, warm season; assay type: in vivo, Setaria faberi; conditions: GR80 = lowest tested rate (300, 100, 30, 10 g/ha) with 80% or greater inhibition; approx. 14 days after treating; 30/21° C.
Outline: as §2

[4] = system: VERPE (creeping speedwell); test: Pre-emergence herbicidal activity, cool season; assay type: in vivo, Veronica persicaria; conditions: lowest tested rate with 80% or greater inhibition; rates 300, 100, 30, 10 g/ha; about 14 days
Outline: as §2

[5] = system: AGSST (creeping bentgrass); test: Pre-emergence herbicidal activity, cool season; assay type: in vivo, Agrostis stolonifera; conditions: GR80 = lowest tested rate (300, 100, 30, 10 g/ha) with 80% or greater inhibition; approx. 14 days after treating; 18/13° C.
Outline: as §2

SOLNI (black nightshade) = test: Pre-emergence herbicidal activity, warm season; assay type: in vivo, Solanum nigrum; conditions: GR80 = lowest tested rate (300, 100, 30, 10 g/ha) with 80% or greater inhibition; approx. 14 days after treating; 30/21° C.
Outline: as §2

SASKR (russian thistle) = test: Pre-emergence herbicidal activity, cool season; assay type: in vivo, Salsola kali; conditions: lowest tested rate with 80% or greater inhibition; rates 300, 100, 30, 10 g/ha; about 14 days
Outline: as §2

[6] = system: BRAPP (broadleaf signalgrass); test: Pre-emergence herbicidal activity, warm season; assay type: in vivo, Brachiaria platyphylla; conditions: GR80 = lowest tested rate (300, 100, 30, 10 g/ha) with 80% or greater inhibition; approx. 14 days after treating; 30/21° C.
Outline: as §2

ECHCG (barnyardgrass) = test: Pre-emergence herbicidal activity, warm season; assay type: in vivo, Echinochloa crus-galli; conditions: GR80 = lowest tested rate (300, 100, 30, 10 g/ha) with 80% or greater inhibition; approx. 14 days after treating; 30/21° C.
Outline: as §2

[7] = system: LAMPU (purple deadnettle); test: Pre-emergence herbicidal activity, cool season; assay type: in vivo, Lamium purpureum; conditions: lowest tested rate with 80% or greater inhibition; rates 300, 100, 30, 10 g/ha; about 14 days
Outline: as §2

[8] = system: PANMI (wild proso millet); test: Pre-emergence herbicidal activity, warm season; assay type: in vivo, Panicum miliaceum; conditions: GR80 = lowest tested rate (300, 100, 30, 10 g/ha) with 80% or greater inhibition; approx. 14 days after treating; 30/21° C.
Outline: as §1

LOLMG (annual ryegrass) = test: Pre-emergence herbicidal activity, cool season; assay type: in vivo, Lolium multiflorum; conditions: GR80 = lowest tested rate (300, 100, 30, 10 g/ha) with 80% or greater inhibition; approx. 14 days after treating; 18/13° C.
Outline: as §2

PANDI (fall panicum) = test: Pre-emergence herbicidal activity, warm season; assay type: in vivo, Panicum dichotomiflorum; conditions: GR80 = lowest tested rate (300, 100, 30, 10 g/ha) with 80% or greater inhibition; approx. 14 days after treating; 30/21° C.
Outline: as §2

STEME (common chickweed) = test: Pre-emergence herbicidal activity, cool season; assay type: in vivo, Stellaria media; conditions: lowest tested rate with 80% or greater inhibition; rates 300, 100, 30, 10 g/ha; about 14 days
Outline: as §2

[9] = system: SORHA (johnsongrass (seedling)); test: Pre-emergence herbicidal activity, warm season; assay type: in vivo, Sorghum halepense; conditions: GR80 = lowest tested rate (300, 100, 30, 10 g/ha) with 80% or greater inhibition; approx. 14 days after treating; 30/21° C.
Outline: as §2

ALOMY (blackgrass) = test: Pre-emergence herbicidal activity, cool season; assay type: in vivo, Alopecurus myosuroides; conditions: GR80 = lowest tested rate (300, 100, 30, 10 g/ha) with 80% or greater inhibition; approx. 14 days after treating; 18/13° C.
Outline: as §1

SORVU (shattercane) = test: Pre-emergence herbicidal activity, warm season; assay type: in vivo, Sorghum vulgare; conditions: GR80 = lowest tested rate (300, 100, 30, 10 g/ha) with 80% or greater inhibition; approx. 14 days after treating; 30/21° C.
Outline: as §2

[10] = system: GALAP (catchweed bedstraw); test: Pre-emergence herbicidal activity, cool season; assay type: in vivo, Galium aparine; conditions: lowest tested rate with 80% or greater inhibition; rates 300, 100, 30, 10 g/ha; about 14 days
Outline: as §2

SINAR (wild mustard) = test: Pre-emergence herbicidal activity, cool season; assay type: in vivo, Sinapis arvensis; conditions: lowest tested rate with 80% or greater inhibition; rates 300, 100, 30, 10 g/ha; about 14 days
Outline: as §2

CCCN(CC)C(=O)n1cnc(S(=O)(=O)C(F)(F)SCC)n1 [Example 51]
Pre-emergence activity GR80, POLCO (POLCO (wild buckwheat)): 100 g/ha | Pre-emergence activity (GR80) CHEAL [1]: 10 g/ha | Pre-emergence activity (GR80) SETVI (SETVI (green foxtail)): 100 g/ha | Pre-emergence activity (GR80) POROL (POROL (common purslane)): 300 g/ha | Pre-emergence activity (GR80) AVEFA (AVEFA (wild oat)): 300 g/ha | Pre-emergence activity (GR80) DIGSA (DIGSA (large crabgrass)): 100 g/ha | Pre-emergence activity (GR80) AGRRE [2]: 300 g/ha | Pre-emergence activity (GR80) AEGCY [3]: 300 g/ha | Pre-emergence activity (GR80) SETFA (SETFA (giant foxtail)): 100 g/ha | Pre-emergence activity GR80, VERPE [4]: 10 g/ha | Pre-emergence activity (GR80) AGSST [5]: 10 g/ha | Pre-emergence activity (GR80) SOLNI (SOLNI (black nightshade)): 300 g/ha | Pre-emergence activity GR80, SASKR (SASKR (russian thistle)): 100 g/ha | Pre-emergence activity (GR80) BRAPP [6]: 100 g/ha | Pre-emergence activity (GR80) ECHCG (ECHCG (barnyardgrass)): 100 g/ha | Pre-emergence activity GR80, LAMPU [7]: 10 g/ha | Pre-emergence activity (GR80) PANMI [8]: 100 g/ha | Pre-emergence activity (GR80) LOLMG (LOLMG (annual ryegrass)): 100 g/ha | Pre-emergence activity (GR80) PANDI (PANDI (fall panicum)): 100 g/ha | Pre-emergence activity GR80, STEME (STEME (common chickweed)): 10 g/ha | Pre-emergence activity (GR80) SORHA [9]: 100 g/ha | Pre-emergence activity (GR80) ALOMY (ALOMY (blackgrass)): 300 g/ha | Pre-emergence activity (GR80) SORVU (SORVU (shattercane)): 30 g/ha | Pre-emergence activity GR80, GALAP [10]: 100 g/ha | Pre-emergence activity GR80, SINAR (SINAR (wild mustard)): 10 g/ha
